Assay results taken from ChEMBL document CHEMBL1201861, “Genomics of Drug Sensitity in Cancer screening data, Wellcome Trust Sanger Institute”.

How the values were obtained:
Assay in all cases: cells
[1] = system: NCI-H1155; type: functional, cell-based, Homo sapiens; conditions: Homo sapiens, NCI-H1155;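 further: cell growth inhibition measured by a viability assay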
Description: SANGER: Inhibition of human NCI-H1155 cell growth in a cell viability assay.

[2] = system: HCE-T; type: functional, cell-based, Homo sapiens; conditions: Homo sapiens, HCE-T;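 further: cell viability assay read-out, reporting inhibition of HCE-T cell growth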
Description: SANGER: Inhibition of human HCE-T cell growth in a cell viability assay.

[3] = system: SH-4; type: functional, cell-based; conditions: Homo sapiens;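 further: growth inhibition of SH-4 cells, read out with a cell viability assay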
Description: SANGER: Inhibition of human SH-4 cell growth in a cell viability assay.

[4] = system: HDLM-2; type: functional, cell-based, Homo sapiens; conditions: Homo sapiens, HDLM-2;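 further: cell viability assay measuring suppression of HDLM-2 proliferation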
Description: SANGER: Inhibition of human HDLM-2 cell growth in a cell viability assay.

[5] = system: A388; type: functional, cell-based; conditions: Homo sapiens;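 further: growth inhibition of human A388 cells, read out with a cell viability assay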
Description: SANGER: Inhibition of human A388 cell growth in a cell viability assay.

[6] = system: HT; type: functional, cell-based, Homo sapiens; conditions: Homo sapiens, HT
[7] = system: EOL1; type: functional, cell-based, Homo sapiens; conditions: Homo sapiens, EOL1;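 further: growth inhibition of EoL-1 cells, read out by a cell viability assay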
[8] = system: C2BBe1; type: functional, cell-based, Homo sapiens; conditions: Homo sapiens, C2BBe1;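 further: growth inhibition of C2BBe1 cells, read out through a viability assay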
Description: SANGER: Inhibition of human C2BBe1 cell growth in a cell viability assay.

[9] = system: ES1; type: functional, cell-based, Homo sapiens; conditions: Homo sapiens, ES1;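 further: growth inhibition of ES1 cells, read out with a cell viability assay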
[10] = system: ES8; type: functional, cell-based, Homo sapiens; conditions: Homo sapiens, ES8;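 further: growth inhibition of human ES8 cells, read out with a cell viability assay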
Description: SANGER: Inhibition of human ES8 cell growth in a cell viability assay.

[11] = system: SF-268; type: functional, cell-based, Homo sapiens; conditions: Homo sapiens, SF-268;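 further: growth inhibition of SF-268 cells determined with a cell viability assay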
Description: SANGER: Inhibition of human SF268 cell growth in a cell viability assay.

[12] = system: KALS-1; type: functional, cell-based, Homo sapiens; conditions: Homo sapiens, KALS-1; read-out: IC50;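 further: growth inhibition of KALS-1 cells, determined with a cell viability assay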
Description: SANGER: Inhibition of human KALS-1 cell growth in a cell viability assay.

[13] = system: TE-11; type: functional, cell-based; conditions: Homo sapiens;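 further: growth inhibition of human TE-11 cells, read out by a cell viability assay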
Description: SANGER: Inhibition of human TE-11 cell growth in a cell viability assay.

[14] = system: MC116; type: functional, cell-based, Homo sapiens; conditions: Homo sapiens, MC116;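 further: growth inhibition of MC116 cells, read out with a cell viability assay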
Description: SANGER: Inhibition of human MC116 cell growth in a cell viability assay.

[15] = system: MMAC-SF; type: functional, cell-based; conditions: Homo sapiens;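 further: growth inhibition of human MMAC-SF cells, read out with a cell viability assay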
[16] = system: Becker; type: functional, cell-based, Homo sapiens; conditions: Homo sapiens, Becker;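 further: growth inhibition of Becker cells, read out with a cell viability assay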
Description: SANGER: Inhibition of human Becker cell growth in a cell viability assay.

[17] = system: BB30-HNC; type: functional, cell-based, Homo sapiens; conditions: Homo sapiens, BB30-HNC;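 further: growth inhibition of the cultured cell line, read out by a cell viability assay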
Description: SANGER: Inhibition of human BB30-HNC cell growth in a cell viability assay.

[18] = system: COLO-684; type: functional, cell-based, Homo sapiens; conditions: Homo sapiens, COLO-684
[19] = system: KU812 cell line; type: functional, cell-based, Homo sapiens; conditions: Homo sapiens, KU812;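 further: growth inhibition of KU812 cells, read out with a cell viability assay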
Description: SANGER: Inhibition of human KU812 cell growth in a cell viability assay.

[20] = system: A498; type: functional, cell-based, Homo sapiens; conditions: Homo sapiens, A498;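 further: growth inhibition of human A498 cells, read out with a cell viability assay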
Description: SANGER: Inhibition of human A498 cell growth in a cell viability assay.

[21] = system: ATN-1; type: functional, cell-based, Homo sapiens; conditions: Homo sapiens, ATN-1;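 further: growth inhibition of human ATN-1 cells, read out with a cell viability assay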
Description: SANGER: Inhibition of human ATN-1 cell growth in a cell viability assay.

[22] = system: SF-126; type: functional, cell-based, Homo sapiens; conditions: Homo sapiens, SF-126;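 further: growth inhibition of human SF126 cells, read out with a cell viability assay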
[23] = system: JVM-3; type: functional, cell-based, Homo sapiens; conditions: Homo sapiens, JVM-3;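 further: growth inhibition of human JVM-3 cells, read out with a cell viability assay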
Description: SANGER: Inhibition of human JVM-3 cell growth in a cell viability assay.

[24] = system: SBC-1; type: functional, cell-based, Homo sapiens; conditions: Homo sapiens, SBC-1;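 further: cell viability assay measuring growth inhibition of the SBC-1 cell line, IC50 being the concentration that halves growth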
Description: SANGER: Inhibition of human SBC-1 cell growth in a cell viability assay.

[25] = system: ACN; type: functional, cell-based, Homo sapiens; conditions: Homo sapiens, ACN;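 further: growth inhibition of the human ACN cell line, read out via cell viability testing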
Description: SANGER: Inhibition of human ACN cell growth in a cell viability assay.

[26] = system: COLO-824; type: functional, cell-based, Homo sapiens; conditions: Homo sapiens, COLO-824
Description: SANGER: Inhibition of human COLO-824 cell growth in a cell viability assay.

[27] = system: SK-MEL-1; type: functional, cell-based, Homo sapiens; conditions: Homo sapiens, SK-MEL-1;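 further: growth inhibition of human SK-MEL-1 cells, read out by a cell viability assay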
Description: SANGER: Inhibition of human SK-MEL-1 cell growth in a cell viability assay.

[28] = system: A101D; type: functional, cell-based, Homo sapiens; conditions: Homo sapiens, A101D;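 further: growth inhibition of the cell line, measured with a viability assay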
Description: SANGER: Inhibition of human A101D cell growth in a cell viability assay.

[29] = system: SW 954; type: functional, cell-based, Homo sapiens; conditions: Homo sapiens, SW 954;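 further: growth inhibition of SW954 human cancer cells, read out as cell viability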
Description: SANGER: Inhibition of human SW954 cell growth in a cell viability assay.

[30] = system: NCI-H1648; type: functional, cell-based, Homo sapiens; conditions: Homo sapiens, NCI-H1648;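 further: cell viability assay measuring inhibition of NCI-H1648 cell growth, from the Sanger screening data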
Description: SANGER: Inhibition of human NCI-H1648 cell growth in a cell viability assay.

[31] = system: NCI-H82; type: functional, cell-based, Homo sapiens; conditions: Homo sapiens, NCI-H82;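 further: growth inhibition of NCI-H82 cells, measured with a cell viability readout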
Description: SANGER: Inhibition of human NCI-H82 cell growth in a cell viability assay.

[32] = system: Ramos-2G6-4C10; type: functional, cell-based, Homo sapiens; conditions: Homo sapiens, Ramos-2G6-4C10;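 further: growth inhibition of the cell line, measured by a cell viability read-out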
Description: SANGER: Inhibition of human Ramos-2G6-4C10 cell growth in a cell viability assay.

[33] = system: LS-123; type: functional, cell-based, Homo sapiens; conditions: Homo sapiens, LS-123
[34] = system: SW684; type: functional, cell-based, Homo sapiens; conditions: Homo sapiens, SW684; read-out: IC50;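 further: growth inhibition of human SW684 cells, measured by a cell viability assay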
[35] = system: A704; type: functional, cell-based; conditions: Homo sapiens;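 further: growth inhibition of human A704 cells, read out with a cell viability assay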
Description: SANGER: Inhibition of human A704 cell growth in a cell viability assay.

[36] = system: NCI-H1395; type: functional, cell-based, Homo sapiens; conditions: Homo sapiens, NCI-H1395;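 further: cell viability assay read-out quantifying reduced proliferation of human NCI-H1395 cells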
Description: SANGER: Inhibition of human NCI-H1395 cell growth in a cell viability assay.

[37] = system: GB-1; type: functional, cell-based, Homo sapiens; conditions: Homo sapiens, GB-1;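 further: growth of GB-1 cells judged by a viability assay, IC50 marks the concentration inhibiting growth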
Description: SANGER: Inhibition of human GB-1 cell growth in a cell viability assay.

[38] = system: RKO; type: functional, cell-based, Homo sapiens; conditions: Homo sapiens, RKO;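 further: growth inhibition of human RKO cells, read out with a cell viability assay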
[39] = system: CAS-1; type: functional, cell-based, Homo sapiens; conditions: Homo sapiens, CAS-1;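 further: growth inhibition of CAS-1 cells, measured with a cell viability assay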
Description: SANGER: Inhibition of human CAS-1 cell growth in a cell viability assay.

[40] = system: MZ1-PC; type: functional, cell-based, Homo sapiens; conditions: Homo sapiens, MZ1-PC;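 further: cell viability assay measuring growth inhibition of human MZ1-PC cells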
[41] = system: BE-13; type: functional, cell-based, Homo sapiens; conditions: Homo sapiens, BE-13;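 further: growth inhibition of human BE-13 cells, measured with a cell viability assay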
Description: SANGER: Inhibition of human BE-13 cell growth in a cell viability assay.

[42] = system: TE-12; type: functional, cell-based, Homo sapiens; conditions: Homo sapiens, TE-12;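 further: growth inhibition of TE-12 cells, read out by a cell viability assay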
Description: SANGER: Inhibition of human TE-12 cell growth in a cell viability assay.

[43] = system: TK-10; type: functional, cell-based, Homo sapiens; conditions: Homo sapiens, TK-10;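 further: growth inhibition of TK-10 cells, read out in a cell viability assay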
Description: SANGER: Inhibition of human TK10 cell growth in a cell viability assay.

[44] = system: D283 Med; type: functional, cell-based, Homo sapiens; conditions: Homo sapiens, D283 Med
Description: SANGER: Inhibition of human D-283MED cell growth in a cell viability assay.

[45] = system: LS-513; type: functional, cell-based, Homo sapiens; conditions: Homo sapiens, LS-513
Description: SANGER: Inhibition of human LS-513 cell growth in a cell viability assay.

[46] = system: ML-2; type: functional, cell-based, Homo sapiens; conditions: Homo sapiens, ML-2;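 further: growth inhibition of ML-2 cells, measured with a cell viability readout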
Description: SANGER: Inhibition of human ML-2 cell growth in a cell viability assay.

[47] = system: EW-13; type: functional, cell-based, Homo sapiens; conditions: Homo sapiens, EW-13; read-out: IC50;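 further: growth inhibition of EW-13 cells, read out with a cell viability assay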
Description: SANGER: Inhibition of human EW-13 cell growth in a cell viability assay.

[48] = system: ETK-1; type: functional, cell-based, Homo sapiens; conditions: Homo sapiens, ETK-1;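 further: growth inhibition of human ETK-1 cells, read out with a cell viability assay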
Description: SANGER: Inhibition of human ETK-1 cell growth in a cell viability assay.

[49] = system: EW-3; type: functional, cell-based, Homo sapiens; conditions: Homo sapiens, EW-3;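 further: cell viability assay read-out, IC50 reflects inhibition of growth of the EW-3 cells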
Description: SANGER: Inhibition of human EW-3 cell growth in a cell viability assay.

[50] = system: DU-4475; type: functional, cell-based, Homo sapiens; conditions: Homo sapiens, DU-4475
Description: SANGER: Inhibition of human DU-4475 cell growth in a cell viability assay.

## C[C@@H](Oc1cc(-c2cnn(C3CCNCC3)c2)cnc1N)c1c(Cl)ccc(F)c1Cl [CRIZOTINIB]
[1]
  IC50: > 2000 nM
[2]
  IC50: > 2000 nM
[3]
  IC50: > 2000 nM
[4]
  IC50: > 2000 nM
[5]
  IC50: > 2000 nM
[6]
  IC50: > 2000 nM
[7]
  IC50: > 2000 nM
[8]
  IC50: > 2000 nM
[9]
  IC50: > 2000 nM
[10]
  IC50: > 2000 nM
[11]
  IC50: > 2000 nM
[12]
  IC50: > 2000 nM
[13]
  IC50: > 2000 nM
[14]
  IC50: > 2000 nM
[15]
  IC50: > 2000 nM
[16]
  IC50: > 2000 nM
[17]
  IC50: > 2000 nM
[18]
  IC50: > 2000 nM
[19]
  IC50: > 2000 nM
[20]
  IC50: > 2000 nM
[21]
  IC50: > 2000 nM
[22]
  IC50: > 2000 nM
[23]
  IC50: > 2000 nM
[24]
  IC50: > 2000 nM
[25]
  IC50: > 2000 nM
[26]
  IC50: > 2000 nM
[27]
  IC50: > 2000 nM
[28]
  IC50: > 2000 nM
[29]
  IC50: > 2000 nM
[30]
  IC50: > 2000 nM
[31]
  IC50: > 2000 nM
[32]
  IC50: > 2000 nM
[33]
  IC50: > 2000 nM
[34]
  IC50: > 2000 nM
[35]
  IC50: > 2000 nM
[36]
  IC50: > 2000 nM
[37]
  IC50: > 2000 nM
[38]
  IC50: > 2000 nM
[39]
  IC50: > 2000 nM
[40]
  IC50: > 2000 nM
[41]
  IC50: > 2000 nM
[42]
  IC50: > 2000 nM
[43]
  IC50: > 2000 nM
[44]
  IC50: > 2000 nM
[45]
  IC50: > 2000 nM
[46]
  IC50: > 2000 nM
[47]
  IC50: > 2000 nM
[48]
  IC50: > 2000 nM
[49]
  IC50: > 2000 nM
[50]
  IC50: > 2000 nM

## CN(NC(=O)CC(=O)NN(C)C(=S)c1ccccc1)C(=S)c1ccccc1 [ELESCLOMOL]
[1]
  IC50: 46.2 nM
[2]
  IC50: 4.45 nM
[3]
  IC50: > 200 nM
[4]
  IC50: > 200 nM
[5]
  IC50: > 200 nM
[6]
  IC50: > 200 nM
[7]
  IC50: 62 nM
[8]
  IC50: 103 nM
[9]
  IC50: 0.749 nM
[10]
  IC50: 1.32 nM
[11]
  IC50: 12.9 nM
[12]
  IC50: 96.3 nM
[13]
  IC50: 46.1 nM
[14]
  IC50: > 200 nM
[15]
  IC50: 84.3 nM
[16]
  IC50: 22.3 nM
[17]
  IC50: 35.3 nM
[18]
  IC50: 9.21 nM
[19]
  IC50: > 200 nM
[20]
  IC50: 46.5 nM
[21]
  IC50: > 200 nM
[22]
  IC50: 1.95 nM
[23]
  IC50: > 200 nM
[24]
  IC50: 35.1 nM
[25]
  IC50: 11.7 nM
[26]
  IC50: 71.8 nM
[27]
  IC50: > 200 nM
[28]
  IC50: 11.4 nM
[29]
  IC50: 14.2 nM
[30]
  IC50: > 200 nM
[31]
  IC50: > 200 nM
[32]
  IC50: 12 nM
[33]
  IC50: 48.5 nM
[34]
  IC50: > 200 nM
[35]
  IC50: 27.5 nM
[36]
  IC50: 13.6 nM
[37]
  IC50: 6.71 nM
[38]
  IC50: 21 nM
[39]
  IC50: 116 nM
[40]
  IC50: 144 nM
[41]
  IC50: > 200 nM
[42]
  IC50: > 200 nM
[43]
  IC50: 42.3 nM
[44]
  IC50: 40.9 nM
[45]
  IC50: 82 nM
[46]
  IC50: > 200 nM
[47]
  IC50: 19.8 nM
[48]
  IC50: 35 nM
[49]
  IC50: 39.9 nM
[50]
  IC50: 112 nM

## COC(=O)[C@H](CCSC)NC(=O)c1ccc(NC[C@@H](N)CS)cc1-c1ccccc1
[1]
  IC50: > 1020 nM
[2]
  IC50: > 1020 nM
[3]
  IC50: > 1020 nM
[4]
  IC50: > 1020 nM
[5]
  IC50: > 1020 nM
[6]
  IC50: > 1020 nM
[7]
  IC50: > 1020 nM
[8]
  IC50: > 1020 nM
[9]
  IC50: > 1020 nM
[10]
  IC50: > 1020 nM
[11]
  IC50: > 1020 nM
[12]
  IC50: > 1020 nM
[13]
  IC50: > 1020 nM
[14]
  IC50: > 1020 nM
[15]
  IC50: > 1020 nM
[16]
  IC50: > 1020 nM
[17]
  IC50: > 1020 nM
[18]
  IC50: > 1020 nM
[19]
  IC50: > 1020 nM
[20]
  IC50: > 1020 nM
[21]
  IC50: > 1020 nM
[22]
  IC50: > 1020 nM
[23]
  IC50: > 1020 nM
[24]
  IC50: > 1020 nM
[25]
  IC50: > 1020 nM
[26]
  IC50: > 1020 nM
[27]
  IC50: > 1020 nM
[28]
  IC50: > 1020 nM
[29]
  IC50: > 1020 nM
[30]
  IC50: > 1020 nM
[31]
  IC50: > 1020 nM
[32]
  IC50: > 1020 nM
[33]
  IC50: > 1020 nM
[34]
  IC50: > 1020 nM
[35]
  IC50: > 1020 nM
[36]
  IC50: > 1020 nM
[37]
  IC50: > 1020 nM
[38]
  IC50: > 1020 nM
[39]
  IC50: > 1020 nM
[40]
  IC50: > 1020 nM
[41]
  IC50: > 1020 nM
[42]
  IC50: > 1020 nM
[43]
  IC50: > 1020 nM
[44]
  IC50: > 1020 nM
[45]
  IC50: > 1020 nM
[46]
  IC50: > 1020 nM
[47]
  IC50: > 1020 nM
[48]
  IC50: > 1020 nM
[49]
  IC50: > 1020 nM
[50]
  IC50: > 1020 nM
